# Data taken from patent US12599649B2, “Bioactive polypeptides for improvements in plant protection, growth and productivity” (priority 2017, dated 2026).
# Where “and” joins values, the source holds several entries; their conditions need not be identical. Identical values can stand only once. No end group written: not given here. *: point of attachment. sulfo = O=S(=O)(O)*
# Assays:
# corn [1] = experiment: Foliar At.PSKα on corn, field yield (Example 20); type: in vivo
# Description: (§1) The effect of Phytosulfokine alpha (PSKα), a sulfonated bioactive priming polypeptide derived from Arabidopsis thaliana, on corn and soybean yield was tested. Corn and soybeans were cultivated in the field as described in Example 1 and 3. Arabidopsis thaliana PSKα (SEQ ID NO: 598) was applied at a final concentration of 1 μM in foliar spray with a surfactant and provided using a uniform application to the above ground plant parts of corn (hybrid 5140RR) and soybean (hybrid 375 NR). At.PSKα formulations were applied at the V5-V8 stage of development in corn and the V1-V4 stage of development in soybean. Corn and soybean plants treated with At.PSKα were compared to non-treated control plants (water). Treated plants were randomized at one location in four replicate blocks for comparisons to the controls. Yield was reported in Bushels per acre (Bu/Ac).
# soybean [2] = experiment: Foliar At.PSKα on soybean, field yield (Example 20); type: in vivo
# Description: as §1
# soybean [3] = experiment: Foliar At.PSKα on soybean in non-stress and stress environments (Example 21); type: in vivo; conditions: V1-V4 foliar
# Description: Soybean plants were grown as described in Example 6. The At.PSKα polypeptide (SEQ ID NO: 598) was applied as a foliar spray to the plants at the V1-V4 stage. Soybean plants treated with foliar applications of At.PSKα and control plants treated with water and surfactant alone were then grown in conditions described in Examples 7-9 that produced a non-stress and stress (heat and water deficit) environments. Table 37 describes the percentage change or increase in height reported for soybean plants treated with At.PSKα as a foliar spray at the V1-V4 growth stage.
# corn [4] = experiment: Foliar HpaG-like and At.PSKα on corn, plant height in non-stress and stress (Example 27); type: in vivo
# [5] = test system: reactive oxygen species (ROS) production in Kiwi 'Hayward' leaf petioles; experiment: ROS assay, kiwi leaf petioles (Example 54); type: cell-based, Actinidiae deliciosa; conditions: 100 nM peptide, 40 minutes time course, SEM in the row below
# Description: To test the sensitivity of kiwi leaves to 22-amino acid fragments of flagellin, 1 mm slices were cut through Actinidiae deliciosa Kiwi ‘Hayward’ leaf petioles and floated in 150 μL of water in a 96-well plate, with one slice per well. […] In two independent experiments, a total of 6 kiwi leaf petiole samples were treated with each Flg22 polypeptide in Table 94. The average total RLU and standard error of the means (SEM) was calculated for each treatment. A two-tailed T-test was used to determine significance at the 90% confidence level (P<0.1) between treatments. Relative ROS production was determined for each polypeptide in comparison to total RLUs for the 100 nM Bt.4Q7Flg22 control.
# [6] = test system: Pseudomonas syringae pv. actinidiae (PSA-V); experiment: Potted kiwi disease trial, PSA-V leaf spot (Example 54); conditions: 6, 16 and 23 DAI
# [7] = test system: reactive oxygen species (ROS) production in corn tissue; experiment: ROS activity assay, corn tissue (Examples 15-18); type: cell-based
# [8] = test system: reactive oxygen species (ROS) production in soybean leaf tissue; experiment: ROS activity assay, soybean leaf discs (Examples 15-18); type: cell-based
# corn [9] = experiment: Corn seed treatment with Bt.4Q7Flg22 and Pa.Flg22, yield (Example 36); type: in vivo; conditions: 1 uM in slurry, 3 hybrids, 8 locations
# Description: Seed treatment compositions of the Flg22 polypeptides were applied as described in Table 53 as Fl. oz per unit of corn or soy seeds in a total slurry volume containing the base seed treatment Bt.4Q7Flg22 from Bacillus thuringinesis (Composition 10) and Pa. Flg22 from Paenibacillus alvei (Composition 11). Final concentration of polypeptide in the slurry for Compositions 10 and 11 was 1 uM.
# The average change in Bu/Ac was as compared to the corn plants grown from seed that received the only the base seed treatment (ST) and is reported in Table 54.
# soybean [10] = experiment: Soybean seed treatment with Flg22 polypeptides and cellobiose, yield (Example 38); type: in vivo; conditions: polypeptide at 1.0 μM (combination 0.33 μM each; cellobiose 1 mM)
# Description: Seed treatments were applied to 1 soybean hybrid (variety) planted in 1 locations in the US Midwest (Columbia, MO). […] The application use rates per each seed treatment were held constant at 0.14 Fl. oz/Ac or 4.14 mL/unit. Final concentration of the Flg22 polypeptides in the slurry for were standardized to 1 uM per seed. The same final concentration of cellobiose that was applied in combination treatments with the Flg22 polypeptides was at 1.0 mM per seed. Four replicate plots per each seed treatment were randomized over the location. The average yield in Bu/Ac and the average change in Bu/Ac as compared to the control plants that received only the base seed treatment are reported in Table 58.
# corn [11] = experiment: Foliar Flg22 polypeptides on corn, field yield trials (Example 1); type: in vivo; conditions: first year field trials, 10 locations, vs non-treated control
# Description: Flg22 (SEQ ID NO 526) and Ec.RI Flg22 (SEQ ID 527) bioactive priming polypeptides on corn (BECK'S 5828 YH, 6175YE) yield was determined in 10 separate locations in the US Midwest (FIG. 2 and FIG. 3).
# Four-row plots, 17.5 feet (5.3 meters) long were planted at all locations. […] Each hybrid was grown in at least three separate plots (replicates) at each location to account for field variability.
# The final concentration in the spray tank was 25 nM after dilution in carrier rate of 10 gallons water/Ac […]. […] Retro-inverso polypeptides were applied during the first year field trials to compare with native Bt.4Q7Flg22. […] Each polypeptide was applied with a non-ionic surfactant at 0.5%. The effect of bioactive priming polypeptides was measured as the absolute changes in yield in bushels per acre (Bu/Ac). Additionally, the win rate was calculated: the percentage of testing locations at which one treatment has a yield advantage over other treatments (in this case, as compared to the non-treated control plants).
# Each study was performed at between 10 and 11 sites. The end results of the study at V5-V8 at 0.33 Fl. oz/Ac (24.1 mL/Ha) was 5.75 Bu/Ac or 360.9 kg/Ha advantage, at 4 Fl. oz/Ac a 3.77 bu/Ac or 236.6 kg/Ha advantage, and at 8 Fl. oz/Ac a 5.05 Bu/Ac or 317 kg/Ha.
# corn [12] = experiment: Foliar E. coli flagellin polypeptides on V5-V8 corn, yield (Example 5); type: in vivo; conditions: V5-V8, 0.33 Fl. oz/Ac, 12 locations
# Description: The effect of flagellin polypeptides derived from Escherichia coli on corn yield was then tested. Corn plants (Beck's 5828 YH) received an initial spray application at the V5-V8 stage of development with formulations containing the Ec.
# FIG. 5 depicts yield across these 12 locations, normalized to the non-treated control plants and shown as an increase or a decrease in Bu/Ac compared to the control. […] Therefore, application of foliar sprays containing the Ec.Flg22 (SEQ ID NO: 526) bioactive priming polypeptides provided a beneficial growth response and yield benefit to corn plants when applied at the V5-V8 stage of development.
# soybean [13] = experiment: Foliar Ec.Flg22 on V2-V3 soybean, plant height in growth room (Example 6); type: in vivo; conditions: 0.33 Fl. oz/Ac, 2 weeks after application
# corn [14] = experiment: Corn plant height in non-stress and heat/water deficit stress environments (Example 8); type: in vivo; conditions: foliar 1 μM
# Description: Control plants were treated only with water.
# corn [15] = experiment: Corn seed treatment with Flg22 polypeptides, yield (Example 10); type: in vivo; conditions: second study, 12 locations
# Description: The seed applications were provided using a 40 μM polypeptide stock diluted to the appropriate concentration in a slurry containing a fungicide, insecticide, beneficial bacteria, colorant and seed finisher (EverGol Energy (0.031 mg ai/seed), PONCHO/VOTiVO (0.6 mg ai/seed), Peridium 1006 (5 fl oz/cwt or 147.9 mL/cwt) and Pro-Ized Red Colorant (normal) (0.5 fl oz/cwt). Seed treatment was applied using a Wintersteiger HEGE II (Wintersteiger AG, Austria, Germany).
# Seed was planted in 12 locations in the U.S. Midwest (IA, IL, IN). Sixteen randomized replicate blocks were harvested per each of the Flg22 polypeptide treatments consisting of Bt.4Q7Flg22 applied at 0.25 μM and 1.0 μM slurry concentration.
# Replicated trials with 12 locations were set up as above. […] The Ec. Flg22 polypeptide gave 2.8 Bu/Ac (175.8 kg/Ha) advantage at 70% win rate, and the Ec.RI Flg22 gave no benefit.
# soybean [16] = experiment: Soybean seed treatment with Flg22 polypeptides and RHPP, yield (Example 10); type: in vivo; conditions: 12 locations
# Source text: A third study was set up to look at soybean seed treatment benefits of Bt.4Q7 Flg22, RI Bt.4Q7Flg22, Ec.RI Flg22, and RHPP as a seed treatment on soybean.
# soybean [17] = experiment: Flg22 and RHPP on R2 soybean, field yield (Examples 3-4); conditions: second study, R2 foliar
# [18] = test system: Candidatus liberibacter asiaticus; conditions: in vivo
# corn [19] = experiment: Foliar Flg22 and retro inverso Flg22 on corn, plant height (Example 7); type: in vivo; conditions: 1 μM
# Description: Control plants were treated with water alone.
substance,measurement,setting,value
"At.PSKα: Phytosulfokine alpha, sulfonated polypeptide derived from Arabidopsis thaliana (Y(sulfo)IY(sulfo)TQ; listed as Arabidopsis thaliana)",yield increases Bu/Ac Foliar Corn,"corn [1]; 1 μM foliar spray with surfactant at V5-V8, vs water control",3.0 Bu/Ac
same,increase in overall yield,"corn [1]; foliar 1 μM, V5-V8 corn",3 Bu/Ac
same,yield increases Bu/Ac Foliar Soybean,"soybean [2]; 1 μM foliar spray with surfactant at V1-V4, vs water control",0.8 Bu/Ac
same,yield increase,"soybean [2]; foliar 1 μM, V1-V4 soybean",0.8 Bu/Ac
same,increase in height vs non-treated control,soybean [3]; non-stress environment,3.5%
same,increase in height vs non-treated control,soybean [3]; stress (heat and water deficit) environments,4.3%
same,Height (cm) and (STDEV) 3 weeks,"corn [4]; corn, 3 weeks after emergence, measured before the foliar spray (baseline), HpaG-like 1 μM, At.PSKα 100 nM",49.36 cm
same,Plant Height Normalized as a percentage of control height Stress,"corn [4]; corn, 5 weeks, heat and water deficit stress, control surfactant alone",107.8%
same,Plant Height Normalized as a percentage of control height Non-stress,"corn [4]; corn, 5 weeks, control surfactant alone",98.2%
same,Height (cm) after stress 5 weeks,"corn [4]; corn, heat and water deficit stress, HpaG-like 1 μM, At.PSKα 100 nM foliar",54.88 cm
same,Height (cm) after non-stress 5 weeks,"corn [4]; corn, standard growth environment, HpaG-like 1 μM, At.PSKα 100 nM foliar",58.62 cm
same,growth phenotype (plant height) vs control,"corn [4]; heat and water deficit stress, HpaG-like 1 μM, PSKα",improved growth phenotype
TRLSSGLKINSAKDDAAGLQIA (listed as Pseudomonas syringae) [Flg22-PSA],Average Total Relative Light Units (RLUs),[5],"124,550 RLUs"
same,PSA-V leaf spot symptoms in comparison to untreated control,[6],significantly reduced PSA-V leaf spot symptoms
GKLSSGLRINGASDDAAGLAIS (listed as Paenibacillus sp.) [Pa.Flg22],Avg. Activity (%) Corn (5828 YX) 5 nM polypeptide,[7],135.3% and 103.61%
same,Avg. Activity (%) Soybean (297 R4) 100 nM polypeptide,[8],112.5% and 132.95%
same,yield increase vs base seed treatment,corn [9],3.57 Bu/Ac
same,Average Change in Bu/Ac compared to Untreated Control,soybean [10],+0.28 Bu/Ac
"AIAQGAADDKASNIRLGSSLRE (not fully specified (some residues); also: retro-inverso D-amino acids, exact chain order not given here; listed as Escherichia coli) [Ec.RI Flg22]",win rate,corn [11],50%
same,average yield increase,"corn [11]; foliar spray 0.33 Fl. oz/Ac, V5-V8 corn",1.9 Bu/Ac
same,average yield increase over non-treated plants,corn [12],1.9 Bu/Ac
same,increase in plant height normalized to control,soybean [13],16%
same,plant height as percentage of control,corn [14]; heat/water stressed conditions,103%
same,plant height as percentage of control,corn [14]; non-stressed conditions,103%
same,yield advantage,corn [15],no benefit
same,win rate,soybean [16],73%
same,yield advantage,soybean [16],1.8 Bu/Ac
same,yield increase,soybean [17]; 100 nM in the tank,0.6 Bu/Ac
same,win rate,soybean [17]; 10-11 sites,80%
"thionin ""tagged"": thionin polypeptide that comprised a phloem localization sequence (SEQ ID NO: 650) (RTCESQSHRFKGPCSRDSNCATVCLTEGFSGGDCRGFRRRCRCTRPCVFDEK)",Ct values compared to control trees,[18],higher average Ct values
Bt4Q7Flg 22 (DRLSSGKRINSASDDAAGLAIA; listed as Bacillus thuringiensis),Δ Height (cm),corn [19]; 3 to 5 weeks,5.40 cm
same,Δ Height Normalized as a percentage of control height,corn [19]; vs water-treated control,+3.7%
